Active and inactive are the calls of the source.
What was measured:
Genome polyprotein = Genome polyprotein (dengue virus type 2, UniProt P29990); assay: Dengue-2 NS5 methyltransferase inhibitors, primary screen, biochemical, confirmation dose response (AID 588689); format: functional
Vero = assay: cells; format: functional; settings: Chlorocebus sabaeus
[1] = Luminescence Cell-Based Dose Retest to Confirm Inhibitors of Cancer Stem Cells. [Related pubchem assays (depositor defined):AID2717, AID2721]; format: functional; settings: Homo sapiens
[2] = growth suppression of PTEN-null colon cells, dose response, cell-based, HCT116 PTEN knockout (AID 1047); format: functional;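 note: HCT116 colon tumor cells with PTEN knocked out; cells exposed to compound for 60 hours before readout; potency for loss of cell viability measured by luminescence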
[3] = growth suppression of beta-catenin-knockout colon cells, dose response, cell-based, HCT116, human colon tumor (AID 1045); format: functional;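 note: HCT116 colon tumor cells with beta catenin knocked out; cells exposed to compound for 60 hours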
INS1 = assay: beta cell apoptosis inhibitors, cytokine rescue, dose response, luminescence, retest (AID 449756); format: functional, cell-based; settings: Rattus norvegicus;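 note: cell death triggered by IL-1 beta plus TNF-alpha plus IFN-gamma mixture; protective hits raise ATP signal compared with cytokine alone wells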
[4] = HeLa cell cytotoxicity, dose response, cytotoxicity control for MgcRacGAP inhibitor project (AID 624300); format: functional
Estrogen receptor beta = Estrogen receptor beta (Homo sapiens, UniProt Q92731);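 note: recombinant ER-beta bound to coactivator SRC1 peptide in presence of estradiol agonist; inhibitors block coactivator peptide binding and lower the FRET signal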
[5] = inhibitors of SNCA 5'UTR-driven reporter translation, confirmation, H4 neuroglioma cells, luminescence (AID 1988); format: functional, cell-based
[6] = microbe, parasite or virus in culture; format: functional; settings: Mycobacterium tuberculosis
[7] = HepG2 cell cytotoxicity, dose response, cytotoxicity control, plate reader, cherry-pick, antagonist series (AID 743416); format: functional, cell-based
[8] = Luminescence Cell-Based Dose Response HTS to Identify Inhibitors of 5'UTR Stem-Loop Driven Prion Protein mRNA Translation in H4 Neuroglioblastoma Cells. [Related pubchem assays: 1827 (Project Summary), 1813 (Primary HTS)]; format: functional
[9] = MC4R antagonists, dose response, counter-screen for LGR2 antagonist project, cell-based, plate reader, cherry pick (AID 743444); format: functional;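 note: transfected HEK 293 cells stimulated with alpha-MSH peptide; potency of inhibitors of the alpha-MSH evoked signal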
[10] = A549 cell cytotoxicity, dose response, cytotoxicity control, plate reader, cherry-pick, antagonist series (AID 743412); format: functional, cell-based
[11] = LGR2 antagonists, dose response, cell-based, HEK293, CRE-luciferase reporter, cherry pick, set 2 (AID 743343); format: functional;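 note: transfected cells were stimulated with diluted bursicon conditioned medium after compound addition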
[12] = biological target: T1, High affinity choline transporter 1 (Homo sapiens, UniProt Q9GZV3); assay: CHT inhibitors, dose response, cell-based, 5-point CRC, membrane potential dye (AID 504840); format: functional
T1 sequence (Q9GZV3 whole entry): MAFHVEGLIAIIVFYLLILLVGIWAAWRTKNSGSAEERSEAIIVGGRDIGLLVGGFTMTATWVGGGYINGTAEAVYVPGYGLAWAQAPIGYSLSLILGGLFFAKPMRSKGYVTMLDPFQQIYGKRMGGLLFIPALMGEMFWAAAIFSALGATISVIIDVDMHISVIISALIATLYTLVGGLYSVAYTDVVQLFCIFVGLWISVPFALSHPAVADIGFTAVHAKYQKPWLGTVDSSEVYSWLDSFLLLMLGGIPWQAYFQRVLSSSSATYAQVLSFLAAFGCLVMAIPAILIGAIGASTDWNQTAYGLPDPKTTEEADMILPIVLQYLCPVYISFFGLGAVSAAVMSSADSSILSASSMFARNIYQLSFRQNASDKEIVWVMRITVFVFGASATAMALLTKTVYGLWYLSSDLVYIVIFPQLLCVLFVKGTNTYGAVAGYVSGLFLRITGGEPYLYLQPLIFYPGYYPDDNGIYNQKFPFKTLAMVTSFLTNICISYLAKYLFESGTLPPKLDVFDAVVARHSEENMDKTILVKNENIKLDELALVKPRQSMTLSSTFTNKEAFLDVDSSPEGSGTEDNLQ

[13] = biological target: T2, Rac GTPase-activating protein 1 (Homo sapiens, UniProt Q9H0H5); assay: MgcRacGAP GTPase-activating activity inhibitors, confirmation, biochemical, ADP Hunter fluorescence, primary and confirmatory (AID 624330); format: functional
T2 sequence (Q9H0H5 whole entry): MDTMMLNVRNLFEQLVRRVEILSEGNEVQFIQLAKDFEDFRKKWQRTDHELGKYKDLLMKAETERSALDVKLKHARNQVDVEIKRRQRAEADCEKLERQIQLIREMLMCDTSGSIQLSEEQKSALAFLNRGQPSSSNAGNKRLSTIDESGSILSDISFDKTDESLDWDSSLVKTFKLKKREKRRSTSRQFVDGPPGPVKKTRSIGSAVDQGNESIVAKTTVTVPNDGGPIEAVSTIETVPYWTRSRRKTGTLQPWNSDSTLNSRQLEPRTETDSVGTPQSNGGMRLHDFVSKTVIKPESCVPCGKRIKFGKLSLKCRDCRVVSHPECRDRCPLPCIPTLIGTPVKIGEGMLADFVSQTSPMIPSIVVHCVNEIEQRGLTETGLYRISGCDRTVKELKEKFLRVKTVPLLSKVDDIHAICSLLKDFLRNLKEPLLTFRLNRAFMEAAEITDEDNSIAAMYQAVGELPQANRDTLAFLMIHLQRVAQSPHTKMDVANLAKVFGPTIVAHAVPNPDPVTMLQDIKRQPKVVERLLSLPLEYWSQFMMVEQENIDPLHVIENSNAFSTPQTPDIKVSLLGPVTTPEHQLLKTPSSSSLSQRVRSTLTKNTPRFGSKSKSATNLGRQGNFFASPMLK

P388/ADR = assay: cells; format: functional; settings: Mus musculus
SN12K1 = assay: cells; format: functional; settings: Homo sapiens
[14] = inhibitors of clade B AD8 Env fusion, dose response, cell-based, cherry-pick (AID 652062); format: functional;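 note: luciferase signal from cell-cell fusion driven by HIV-1 clade B AD8 Env; potency is for inhibitors of fusion seen as a drop in luminescence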
Cytochrome P450 2C19 = Cytochrome P450 2C19 (Homo sapiens, UniProt P33261); assay: Cytochrome panel assay with activity outcomes. Panel member name: p450-cyp2c19 Compounds with AC50 equal or less than 10 uM are considered active; format: functional; settings: read-out: AC50
Cytochrome P450 1A2 = biological target: T3, Cytochrome P450 1A2 (Homo sapiens, UniProt P05177);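 note: PubChem cytochrome P450 panel assay, CYP1A2 panel member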
T3 sequence (P05177 whole entry): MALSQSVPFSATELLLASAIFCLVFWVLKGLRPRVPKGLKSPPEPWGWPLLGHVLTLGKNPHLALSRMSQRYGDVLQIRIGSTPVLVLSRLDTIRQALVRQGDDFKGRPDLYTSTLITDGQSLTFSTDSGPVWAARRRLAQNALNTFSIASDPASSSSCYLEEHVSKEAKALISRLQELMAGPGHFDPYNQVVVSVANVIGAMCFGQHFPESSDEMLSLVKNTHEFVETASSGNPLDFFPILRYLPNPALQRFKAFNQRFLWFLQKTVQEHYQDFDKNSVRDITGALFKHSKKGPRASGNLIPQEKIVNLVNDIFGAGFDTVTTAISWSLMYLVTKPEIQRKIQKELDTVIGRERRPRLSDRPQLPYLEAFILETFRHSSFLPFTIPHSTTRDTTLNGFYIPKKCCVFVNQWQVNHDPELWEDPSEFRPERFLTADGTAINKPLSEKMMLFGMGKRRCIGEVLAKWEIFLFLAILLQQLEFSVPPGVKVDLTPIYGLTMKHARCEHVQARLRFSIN

Chain of Estrogen receptor beta (Q92731 whole entry): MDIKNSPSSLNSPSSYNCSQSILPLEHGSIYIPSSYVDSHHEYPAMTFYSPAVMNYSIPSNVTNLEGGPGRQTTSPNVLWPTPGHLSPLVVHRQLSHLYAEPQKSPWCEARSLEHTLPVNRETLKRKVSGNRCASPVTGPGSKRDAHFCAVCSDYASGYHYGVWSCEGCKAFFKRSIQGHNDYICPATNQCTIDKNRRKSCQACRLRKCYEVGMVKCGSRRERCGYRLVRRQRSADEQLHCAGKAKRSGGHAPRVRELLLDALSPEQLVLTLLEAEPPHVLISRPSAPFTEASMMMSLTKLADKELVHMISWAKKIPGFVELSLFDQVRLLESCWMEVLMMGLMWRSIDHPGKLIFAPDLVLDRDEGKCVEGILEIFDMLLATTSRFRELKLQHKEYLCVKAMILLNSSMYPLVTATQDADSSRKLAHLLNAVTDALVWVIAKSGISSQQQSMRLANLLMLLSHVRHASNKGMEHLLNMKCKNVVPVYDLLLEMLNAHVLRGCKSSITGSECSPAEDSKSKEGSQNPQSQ
Chain of Genome polyprotein (P29990 2492-3391 limits assumed): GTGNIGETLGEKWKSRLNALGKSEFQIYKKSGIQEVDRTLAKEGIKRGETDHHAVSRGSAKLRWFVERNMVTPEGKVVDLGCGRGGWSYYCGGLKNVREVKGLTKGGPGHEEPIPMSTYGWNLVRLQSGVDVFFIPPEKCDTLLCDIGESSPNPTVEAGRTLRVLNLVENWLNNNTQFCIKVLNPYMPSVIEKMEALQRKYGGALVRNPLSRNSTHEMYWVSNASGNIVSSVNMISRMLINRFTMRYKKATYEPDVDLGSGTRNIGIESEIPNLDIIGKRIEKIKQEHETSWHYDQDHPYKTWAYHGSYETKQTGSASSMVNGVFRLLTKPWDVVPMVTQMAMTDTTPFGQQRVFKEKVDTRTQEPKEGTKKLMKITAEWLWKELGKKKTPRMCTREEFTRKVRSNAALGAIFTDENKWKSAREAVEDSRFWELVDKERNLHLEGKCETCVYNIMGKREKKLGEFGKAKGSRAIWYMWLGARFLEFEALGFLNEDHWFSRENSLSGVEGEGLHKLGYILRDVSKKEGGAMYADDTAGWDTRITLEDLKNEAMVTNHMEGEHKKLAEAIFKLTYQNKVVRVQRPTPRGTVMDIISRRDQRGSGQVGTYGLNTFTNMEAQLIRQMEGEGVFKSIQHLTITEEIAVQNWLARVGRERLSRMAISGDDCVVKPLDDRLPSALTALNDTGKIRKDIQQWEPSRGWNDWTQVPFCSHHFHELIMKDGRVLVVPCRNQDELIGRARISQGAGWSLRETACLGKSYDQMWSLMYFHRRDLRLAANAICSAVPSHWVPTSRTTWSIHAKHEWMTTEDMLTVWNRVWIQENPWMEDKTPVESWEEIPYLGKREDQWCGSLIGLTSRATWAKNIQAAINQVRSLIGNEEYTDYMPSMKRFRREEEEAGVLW
Chain of Cytochrome P450 2C19 (P33261 whole entry): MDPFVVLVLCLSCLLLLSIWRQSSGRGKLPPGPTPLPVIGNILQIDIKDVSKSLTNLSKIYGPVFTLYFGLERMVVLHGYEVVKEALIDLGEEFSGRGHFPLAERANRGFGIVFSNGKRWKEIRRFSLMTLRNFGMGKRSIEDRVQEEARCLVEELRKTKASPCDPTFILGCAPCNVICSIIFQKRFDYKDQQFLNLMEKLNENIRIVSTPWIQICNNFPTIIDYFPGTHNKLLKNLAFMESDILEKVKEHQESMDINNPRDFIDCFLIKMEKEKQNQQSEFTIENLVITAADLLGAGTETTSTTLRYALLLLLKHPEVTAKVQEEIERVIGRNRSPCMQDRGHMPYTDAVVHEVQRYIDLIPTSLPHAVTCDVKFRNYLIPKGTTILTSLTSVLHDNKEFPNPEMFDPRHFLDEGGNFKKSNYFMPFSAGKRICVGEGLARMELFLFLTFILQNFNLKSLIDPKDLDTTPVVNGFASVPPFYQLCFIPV

Q: For `CC(=O)n1cc(C=C2C(=O)NC(=O)NC2=O)c2ccccc21`, which IC50 (Genome polyprotein) is on record?
A: The IC50 was 42.8 µM (active).

Q: With `O=C(Nc1ccccc1C(F)(F)F)N1CCN(c2ccc3nnc(-c4ccc(F)cc4)n3n2)CC1` as the compound, how does the CC50 (Vero) read?
A: The CC50 was > 25 µM (active).

Q: With `C=CCn1c(SCC(=O)c2[nH]c(C)c(C(=O)OCC)c2C)nc2scc(-c3ccc(OC)c(OC)c3)c2c1=O` as the compound, how does the AC50 [1] read?
A: Its AC50 is 2.05 µM (active).

Q: And the EC50 [2]?
A: The EC50 was 6.55 µM (active).

Q: What about the EC50 [3] of the same compound?
A: The EC50 was 7.26 µM (active).

Q: What about the AC50 (INS1) of the same compound?
A: Its AC50 is 3.37 µM (active).

Q: For `COc1cc(OC)c(NC(=O)C(=O)CC(=O)c2ccc(C)cc2C)cc1Cl`, which CC50 (Vero) is on record?
A: Its CC50 is 9.4 µM (active).

Q: What does the source list for `Cc1ccc(-n2nnnc2Sc2ccc(S(=O)(=O)NCCN(C)C)cc2[N+](=O)[O-])cc1`?
A: AC50 [1]: 2.59 µM (active); EC50 [2]: 2.26 µM (active); EC50 [3]: 2.05 µM (active)

Q: Which EC50 [2] does the source give for `Cc1ccc(-c2[nH]c3ccccc3c2SCCNC(=O)c2ccc(S(=O)(=O)N3CCOCC3)cc2)cc1` here?
A: The EC50 was 112 µM (active).

Q: What about the EC50 [3] of the same compound?
A: The EC50 was 152 µM (active).

Q: With `O=C(/C=C/c1ccc([N+](=O)[O-])cc1)/C=C/c1ccco1` as the compound, how does the CC50 [4] read?
A: Its CC50 is 100 µM (active).

Q: For `COc1cccc(/C=C2/C(=O)NN(c3ccccc3)C2=O)c1`, which IC50 (Genome polyprotein) is on record?
A: Its IC50 is 45.8 µM (active).

Q: For `CN1C(=O)/C(=C2\SC(N)=NC2=O)c2ccccc21`, which EC50 [2] is on record?
A: The EC50 was 33.2 µM (active).

Q: What about the EC50 [3] of the same compound?
A: Its EC50 is 44.1 µM (active).

Q: Which IC50 (Estrogen receptor beta) does the source give for `CN1CCCC(OC(=O)c2ccc3c(c2)OCCO3)C1` (stereo unspecified) here?
A: The IC50 was > 50 µM (not active).

Q: With `COCCCNc1nc2c([nH]1)c(=O)[nH]c(=O)n2C` as the compound, how does the IC50 (Estrogen receptor beta) read?
A: The IC50 was > 50 µM (not active).

Q: For `CCCNCC1COc2ccccc2O1` (stereo unspecified), which IC50 (Estrogen receptor beta) is on record?
A: The IC50 was 4.1 µM (active).

Q: What does the source list for `COc1ccc(-c2cc3nc(CCl)nc(O)c3s2)cc1`?
A: EC50 [5]: 11 µM (active); CC50 [6]: 6.88 µM (active); AC50 [7]: 17.1 µM (active); EC50 [8]: 11.8 µM (active); AC50 [9]: 8.71 µM (active); AC50 [10]: 16.8 µM (active); AC50 [11]: 6.33 µM (active)

Q: For `CCOC(=O)CN1CC23C=CC(O2)C(C(=O)Nc2cc(OC)ccc2OC)C3C1=O` (stereo unspecified), which IC50 (Estrogen receptor beta) is on record?
A: The IC50 was > 50 µM (not active).

Q: With `CCn1cc(/C=C(\NC(=O)c2ccccc2F)C(=O)NCCCn2ccnc2)c2ccccc21` as the compound, how does the IC50 [12] read?
A: Its IC50 is 14.5 µM (active).

Q: Which results are given for `Cc1ccc(-c2cc(C(=O)N3CCN(c4ccc(O)cc4)CC3)c3ccccc3n2)cc1`?
A: AC50 [1]: 6.6 µM (active); IC50 [13]: 88 µM (active); CC50 [4]: 100 µM (active)

Q: With `O=C(Cn1ncc2c3ccccc3n(Cc3ccccc3)c2c1=O)NCCN1CCOCC1` as the compound, how does the IC50 [12] read?
A: The IC50 was 11.2 µM (active).

Q: For `O=C(OCc1nc(O)c2sccc2n1)c1ccc(Cl)s1`, which IC50 [12] is on record?
A: Its IC50 is 12.6 µM (active).

Q: Which GI50 (P388/ADR) does the source give for `COC1C(OC(=O)/C=C/C=C/C=C/C=C/C(=O)O)CCC2(CO2)C1C1(C)OC1CC=C(C)C` (stereo unspecified) here?
A: The GI50 was 13.2 µM (inactive).

Q: And the GI50 (SN12K1)?
A: Its GI50 is 16.1 µM (inactive).

Q: Which AC50 [14] does the source give for `O=C(C[C@@H]1C[C@H]2c3cc(NC(=O)Nc4ccccc4)ccc3O[C@H]2[C@H](CO)O1)NCc1cccnc1` here?
A: Its AC50 is 1.64 µM (active).

Q: For `O=c1cc(-c2ccccc2)c2c(O)cc(O)cc2o1`, which IC50 [12] is on record?
A: Its IC50 is 13.7 µM (active).

Q: What does the source list for `CN(C)CCCN1c2ccc(O)cc2Sc2ccc(Cl)cc21` [7-HYDROXYCHLORPROMAZINE]?
A: AC50 (Cytochrome P450 2C19): 0.794 µM (inconclusive); AC50 (Cytochrome P450 1A2): 0.631 µM (inconclusive); IC50 [13]: 11.6 µM (active); CC50 [4]: 84.5 µM (active)
